{"source": "patent EP1146866B1", "about": "“A METHOD FOR TREATING PATIENTS WITH ACNE BY ADMINISTERING A CYCLIC GMP PDE INHIBITOR” (priority 1999, dated 2000)", "key": {"[1]": {"target": "PDE5 (Homo sapiens, UniProt O76074)", "test": "cGMP-specific PDE inhibition activity (3H cyclic GMP substrate)", "format": "biochemical", "description": "(§1) cGMP-specific phosphodiesterase activity can be determined using methods known in the art, such as a method using radioactive ^3H cyclic GMP (cyclic 3',5'-guanosine monophosphate) as the substrate for PDE5 enzyme (Thompson, W.J., Teraski, W.L., Epstein, P.M., Strada, S.J., Advances in Cyclic Nucleotide Research, 10:69-92, 1979. Using such techniques, the values of cGMP-specific inhibition set forth in Table 1 were determined for the compounds above: TABLE 1"}, "[2]": {"target": "PDE2 (Homo sapiens, UniProt O00408)", "sequence (O00408 whole entry)": "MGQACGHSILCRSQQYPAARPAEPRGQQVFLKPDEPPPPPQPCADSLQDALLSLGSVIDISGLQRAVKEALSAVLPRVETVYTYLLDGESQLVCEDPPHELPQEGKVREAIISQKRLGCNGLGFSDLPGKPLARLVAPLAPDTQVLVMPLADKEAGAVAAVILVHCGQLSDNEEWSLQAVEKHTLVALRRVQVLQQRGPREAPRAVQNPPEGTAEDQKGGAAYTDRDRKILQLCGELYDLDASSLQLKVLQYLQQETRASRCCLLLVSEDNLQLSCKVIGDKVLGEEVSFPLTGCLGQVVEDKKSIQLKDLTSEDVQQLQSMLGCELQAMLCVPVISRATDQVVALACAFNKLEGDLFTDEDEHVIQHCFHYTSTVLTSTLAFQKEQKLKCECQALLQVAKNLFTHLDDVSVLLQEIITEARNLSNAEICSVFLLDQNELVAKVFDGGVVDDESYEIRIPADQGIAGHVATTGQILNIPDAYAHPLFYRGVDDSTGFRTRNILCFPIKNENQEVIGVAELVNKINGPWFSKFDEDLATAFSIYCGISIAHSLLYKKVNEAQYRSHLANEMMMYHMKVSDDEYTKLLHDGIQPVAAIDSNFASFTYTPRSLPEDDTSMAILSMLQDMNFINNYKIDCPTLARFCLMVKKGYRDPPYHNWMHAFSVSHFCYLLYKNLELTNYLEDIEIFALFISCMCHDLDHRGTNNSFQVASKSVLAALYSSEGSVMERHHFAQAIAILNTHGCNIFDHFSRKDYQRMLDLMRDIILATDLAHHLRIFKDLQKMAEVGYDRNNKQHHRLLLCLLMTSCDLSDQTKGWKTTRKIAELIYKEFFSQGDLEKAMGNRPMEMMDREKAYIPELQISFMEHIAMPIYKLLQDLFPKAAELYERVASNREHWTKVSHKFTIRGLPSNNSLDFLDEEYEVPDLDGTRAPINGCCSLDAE", "test": "cGMP-stimulated PDE inhibition activity", "format": "biochemical", "description": "as §1\ncGMP phosphodiesterase activity can be determined using the methods referenced in Example 5, above. Using such techniques, the IC50 value for the inhibition of PDE2 by the compound of Example 1, exisulind, was determined as shown in Table 2."}, "[3]": {"system": "acne vulgaris", "test": "Clinical results with a patient with acne vulgaris", "format": "in vivo, human", "description": "A patient with acne vulgaris was given a pharmaceutical composition containing 125 mg of a cGMP-specific PDE inhibitor, exisulind (the compound of Example 1), twice daily for 8 weeks. […] Since the patient was tolerating that daily dose quite well, their dose of exisulind was increased to 150 mg twice daily, for an additional 8 weeks.\nThe pharmaceutical formulation for the 150 mg-containing pharmaceutical composition taken by this patient contained exisulind (150 mg), lactose monohydrate (207 mg), croscarmellose sodium (15 mg), colloidal silicon dioxide (1 mg), magnesium stearate (6.3 mg), and sodium lauryl sulfate (0.7 mg) encapsulated in a # 1 gelatin capsule. The exisulind was obtained from Zambon Group, S.p.A., of Milan, Italy. The pharmaceutical formulation for the 125 mg containing composition was formulated with less exisulind, and more excipients to fill the capsule."}, "[4]": {"test": "Clinical studies of exisulind for uses other than acne (tolerability)", "format": "in vivo", "description": "In studies with adult patients, patients with intact colons received exisulind at a dosage of 400 mg/day, and patients who had previously undergone a colectomy received exisulind at a dosage of 600 mg/day. In another study with adult patients, the patients received 500 mg/day of exisulind. In a study involving pediatric patients, the dosage of exisulind used ranged from 250 to 350 mg per day.\nIn these studies, exisulind is generally well tolerated in patients. […] The maximum tolerated dose (MTD) was determined to be 600 mg/day in patients with colectomies, and 400 mg/day in the group with intact colons. […] These elevations were completely reversible on stopping the drug. Additionally, after a patient with elevated liver enzymes stops receiving the drug for approximately one week, the patient can then safely resume treatment at the same or a lower therapeutic dose, i.e. the dosages mentioned above. The elevations seem to be dose related and have been seen mostly at doses above the maximum tolerated dose. […] Thirteen of those patients received exisulind for over three years."}}, "data": [{"compound": "COC(=O)CC1=C(C)/C(=C/c2ccc(S(C)(=O)=O)cc2)c2ccc(F)cc21", "note": "[Example 2, α-(1-p-Methylsulfonylbenzylidene)-2-Methyl-5-Fluoro-3-Indenyl -Acetic Acid Methyl Ester]", "values": [{"measurement": "inhibition at 10 µM", "setting": "[1]", "value": 50, "unit": "%"}]}, {"compound": "CC1=C(CC(=O)O)c2cc(F)ccc2/C1=C\\c1ccc(S(C)(=O)=O)cc1", "note": "[Example 1, α-(1-p-Methylsulfonylbenzylidene)-2-Methyl-5-Fluoro-3-Indenyl-Acetic Acid]", "values": [{"measurement": "inhibition at 10 µM", "setting": "[1]", "value": 39, "unit": "%"}, {"measurement": "IC50", "setting": "[2]", "value": 300, "unit": "µM"}, {"measurement": "patient's acne", "setting": "[3]; 150 mg twice daily for an additional 8 weeks, end of second 8-week period", "value": "disappeared completely"}, {"measurement": "adverse side effects reported by patient", "setting": "[3]; after 125 mg then 150 mg twice daily, 8 weeks each", "value": "no adverse side effects"}, {"measurement": "manifestations of acne during continued treatment", "setting": "[3]; continued on drug for six months", "value": "without any significant manifestations of acne"}, {"measurement": "patient's acne (intensity)", "setting": "[3]; patient, 125 mg twice daily for 8 weeks", "value": "decrease noticeably in intensity"}, {"measurement": "maximum tolerated dose (MTD)", "setting": "[4]; group with intact colons", "value": 400, "unit": "mg/day"}, {"measurement": "liver function tests", "setting": "[4]; human, in vivo", "value": "moderate, reversible, asymptomatic elevation in liver function tests"}, {"measurement": "side effects in clinical studies", "setting": "[4]; human, in vivo", "value": "no clinically relevant side effects reported"}, {"measurement": "side effects on extended treatment", "setting": "[4]; human, in vivo", "value": "no such clinically significant side effects"}, {"measurement": "maximum tolerated dose (MTD)", "setting": "[4]; patients with colectomies", "value": 600, "unit": "mg/day"}]}, {"compound": "CC1=C(CCO)c2cc(F)ccc2/C1=C\\c1ccc(S(C)(=O)=O)cc1", "note": "[Example 3, (Z)-5-Fluoro-2-Methyl-1-(4-Methylsulfonylbenzylidene)-1H-3-Indenyl-(2-Hydroxy) Ethane]", "values": [{"measurement": "inhibition at 10 µM", "setting": "[1]", "value": 80, "unit": "%"}]}]}
